± gives the expanded uncertainty stated by the source.
Conditions: 298.15 K; 101.33 kPa; Crystal; Pycnometric method

molar volume: 0.000268 ± 1.6e-05 m3/mol
SMILES: CC1=C(C(=O)O)N2C(=O)[C@@H](NC(=O)[C@H](N)C3=CCC=CC3)[C@H]2SC1 [Cefradin]
